One series relates to intracellular MRSA. The series is classed as cell-based, Staphylococcus aureus. The following applies: for %GFP+ rep 1 / z-scoreMRSA+ rep 1: replicate 1; for %GFP+ rep 2 / z-scoreMRSA+ rep 2: replicate 2; for %GFP+ rep 3 / z-scoreMRSA+ rep 3: replicate 3; for z-scoreMRSA+ mean: mean of 3 replicates. As to the method: (§1) The cells were resuspended in cell culture medium without antibiotics, seeded with 10,000 cells/well into Costar flat-bottom 96-well plates (Corning, Amsterdam, the Netherlands), and were incubated overnight at 37°C/5% CO2. The next day, the bacteria were centrifuged at ≥1800 g for 15 min and resuspended in cold PBS + 5 mM ethylenediaminetetraacetic acid (EDTA). The number of CFUs present in the bacterial suspension was estimated from the optical density at 600 nm (OD600) by assuming 8x10^8 CFUs to be present in a bacterial suspension with OD600 = 1, based on prior titrations. The bacterial suspension was diluted in cell culture medium without antibiotics and added to the cells. Accuracy of the multiplicity of infection (MOI) was validated by plating serial dilutions of the MRSA inoculums on Difco TS agar plates (BD Biosciences). The calculated mean MOI throughout all experiments was 6.8 ± 4.6 (mean ± SD). Infected cells were centrifuged for 3 min at 150 g and incubated for 1 hour at 37°C/5% CO2. Next, the cells were incubated with fresh cell culture medium supplemented with 30 µg/ml gentamicin sulphate (Lonza BioWhittaker, Basel, Switzerland) for 15 min at 37°C/5% CO2 to kill residual extracellular bacteria. Infected cells were incubated overnight at 37°C/5% CO2 in cell culture medium in the presence of kinase inhibitors and 5 µg/ml gentamicin sulphate-containing medium to prevent the growth of extracellular bacteria. The solvent of the compounds, DMSO, was used at equal % v/v as a negative control. For the screen, each compound was tested in triplicate, on separate cell culture plates, resulting in triplicate values for each kinase inhibitor.
(§2) HeLa cells were harvested by trypsinization and fixed with 1% paraformaldehyde. Samples were measured on a FACSLyric with HTS extension (BD Biosciences). Flow cytometry data were analysed using FlowJo version 10 (TreeStar, Ashland, OR, USA). HeLa cells positive for GFP were gated to calculate the percentage of MRSA-infected cells. The cell count was used as surrogate readout of cell viability.
To identify potential “hit” compounds, the flow cytometry data were used to calculate standard z-scores using z = (x-μ)/σ – zneg, where x is total event count or the percent of GFP-positive cells from a single well, μ is the mean from wells of the plate, σ is the standard deviation of the plate and zneg is the mean z-score of the negative control of the plate (i.e., DMSO) ([Korbee et al., 2018]). To minimize the possibility that the presence of extreme values on a plate affected the z-scores, raw values that deviated two-fold from the negative controls were excluded when calculating plate means and standard deviations as used in the aforementioned formula. Compounds were considered a “hit” when z-scoreMRSA+ ≤ -2 and z-scoreHeLa ≥ -3 for cell count. In cases where compounds were screened twice, the average values were used to select hit compounds.

Another series deals with HeLa cells. The series is described as follows: Compound screen by flow cytometry: HeLa cell count as surrogate readout of cell viability (z-scoreHeLa). The series is classed as cell-based, human. The following applies: for cell count rep 1 / z-scoreHeLa rep 1: replicate 1; for cell count rep 2 / z-scoreHeLa rep 2: replicate 2; for cell count rep 3 / z-scoreHeLa rep 3: replicate 3; for z-scoreHeLa mean: mean of 3 replicates. On the procedure:
as §1, §2
To minimize the possibility that the presence of extreme values on a plate affected the z-scores, raw values that deviated two-fold from the negative controls were excluded when calculating plate means and standard deviations as used in the aforementioned formula. Compounds were considered a “hit” when z-scoreMRSA+ ≤ -2 and z-scoreHeLa ≥ -3 for cell count. In cases where compounds were screened twice, the average values were used to select hit compounds.
Background: Flow cytometry measures light scatter and fluorescence of single cells or particles in a stream.

[1] abbreviates: PKIS compound screen raw data, MRSA-infected HeLa cells.
The mark [2] stands for this setting: Yes/No: effect without cell death.
Setting [3] is: compound screen, MRSA-infected HeLa cells.
The mark [4] stands for this setting: PKIS compound screen raw data, HeLa cell count.
Where [5] appears, read: compound screen, HeLa cell count.
The mark [6] stands for this setting: PKIS compound screen, MRSA-infected HeLa cells.
[7] abbreviates: PKIS compound screen, Yes/No call.
Setting [8] is: PKIS compound screen, Yes/No call (effect without cell death).
Setting [9] is: PKIS compounds raw data, MRSA-infected HeLa cells.
Where [10] appears, read: PKIS compound screen, HeLa cell count.
Setting [11] is: PKIS compounds raw data, HeLa cell count.

Like-named read-outs stand apart in the source and are kept apart here.

For the compound `CS(=O)(=O)CCNCc1nc(-c2ccc3ncnc(Nc4ccc(OCc5ccccc5)c(Cl)c4)c3c2)cs1` [GW582764A], in the series with intracellular MRSA (setting [1]), the “%GFP+ rep 1” value amounted to 15.6%, the “%GFP+ rep 2” value amounted to 19.2% and the “%GFP+ rep 3” value is 19.4%. Further, the effect entry with intracellular MRSA (Yes/No call from z-scoreMRSA+) is “No”. The hit result in the series with intracellular MRSA (setting [2]) is reported as “No”. In the series on intracellular MRSA (setting [3]), the “z-scoreMRSA+ mean” value is -1.31, the “z-scoreMRSA+ rep 1” value is -2.25, the “z-scoreMRSA+ rep 2” value is on record as -0.83 and the “z-scoreMRSA+ rep 3” value is listed as -0.84. Besides, in the series on HeLa cells (setting [4]), the “cell count rep 1” value is reported as 3605, the “cell count rep 2” value amounted to 3519 and the “cell count rep 3” value was 4776. In the series on HeLa cells (Yes/No call from z-scoreHeLa), the cell death result is on record as “No”. Besides, in the series on HeLa cells (setting [5]), the z-scoreHeLa mean is on record as -0.48, the “z-scoreHeLa rep 1” value was -0.54, the “z-scoreHeLa rep 2” value was -0.60 and the “z-scoreHeLa rep 3” value is listed as -0.29.

`Cc1cc(NCC(c2ccccc2)c2ccccc2)nc(NCc2ccc(C(F)(F)F)cc2)n1` [GW497681X]: in the series with intracellular MRSA (setting [1]), the “%GFP+ rep 1” value is listed as 20.1%, the “%GFP+ rep 2” value is 18.7% and the “%GFP+ rep 3” value is 19.8%. For the same compound, in the series with intracellular MRSA (setting [6]), the “z-scoreMRSA+ mean” value was -0.08, the “z-scoreMRSA+ rep 1” value stood at 0.35, the “z-scoreMRSA+ rep 2” value is -0.19 and the “z-scoreMRSA+ rep 3” value was -0.39. Moreover, the effect result in the series on intracellular MRSA (setting [7]) is “No”. Further, the hit result with intracellular MRSA (setting [8]) is given as “No”. The effect entry with intracellular MRSA (PKIS compound screen, Yes/No call on z-scoreMRSA+) was “No”. In the series on intracellular MRSA (PKIS compound screen), the “z-scoreMRSA+ mean” value is reported as -1.09, the “z-scoreMRSA+ rep 1” value is recorded as -0.81, the “z-scoreMRSA+ rep 2” value is given as -1.24 and the “z-scoreMRSA+ rep 3” value is -1.24. In addition, in the series with intracellular MRSA (setting [9]), the “%GFP+ rep 1” value is given as 22.9%, the “%GFP+ rep 2” value turned out to be 19.6% and the “%GFP+ rep 3” value was 20.6%. In the series on HeLa cells (setting [4]), the “cell count rep 1” value is recorded as 17665, the “cell count rep 2” value is listed as 6230 and the “cell count rep 3” value is reported as 5782. Besides, in the series on HeLa cells (setting [10]), the z-scoreHeLa mean was -2.65, the “z-scoreHeLa rep 1” value was -2.12, the “z-scoreHeLa rep 2” value was -3.27 and the “z-scoreHeLa rep 3” value is -2.56. Also, in the series with HeLa cells (setting [7]), the cell death result was “No”. For the same compound, the cell death result with HeLa cells (PKIS compound screen, Yes/No call on z-scoreHeLa) was “No”. Further, in the series on HeLa cells (PKIS compound screen), the z-scoreHeLa mean was -2.45, the “z-scoreHeLa rep 1” value was -2.37, the “z-scoreHeLa rep 2” value is listed as -3.07 and the “z-scoreHeLa rep 3” value was -1.91. In the series with HeLa cells (setting [11]), the “cell count rep 1” value is recorded as 2106, the “cell count rep 2” value worked out at 1381 and the “cell count rep 3” value turned out to be 2577.

Take `COc1ccc2ncnc(Nc3ccc(OCc4ccccc4)cc3)c2c1` [GI261520A]: in the series on intracellular MRSA (setting [7]), the effect entry is given as “No”. Also, the hit entry in the series on intracellular MRSA (setting [8]) was “No”. In addition, in the series with intracellular MRSA (PKIS compound screen), the “z-scoreMRSA+ mean” value is reported as -0.60, the “z-scoreMRSA+ rep 1” value was -0.44, the “z-scoreMRSA+ rep 2” value is given as -0.0319 and the “z-scoreMRSA+ rep 3” value is -1.33. In addition, in the series with intracellular MRSA (setting [9]), the “%GFP+ rep 1” value turned out to be 11.8%, the “%GFP+ rep 2” value was determined as 13.4% and the “%GFP+ rep 3” value was found to be 11.4%. In the series with HeLa cells (setting [7]), the cell death result is listed as “No”. Also, in the series with HeLa cells (PKIS compound screen), the z-scoreHeLa mean was found to be 1.78, the “z-scoreHeLa rep 1” value is recorded as 1.21, the “z-scoreHeLa rep 2” value amounted to 1.33 and the “z-scoreHeLa rep 3” value turned out to be 2.78. In addition, in the series with HeLa cells (setting [11]), the “cell count rep 1” value was 6115, the “cell count rep 2” value is recorded as 6030 and the “cell count rep 3” value was found to be 12782.

Consider `Cc1cc(-c2ccnc(Nc3cccc(C#N)c3)n2)cc(C)c1O` [GSK1440913A], for which, in the series on intracellular MRSA (setting [1]), the “%GFP+ rep 1” value is reported as 19.8%, the “%GFP+ rep 2” value was 21.2% and the “%GFP+ rep 3” value came to 19.2%. The effect result with intracellular MRSA (Yes/No call from z-scoreMRSA+) is on record as “No”. For the same compound, in the series with intracellular MRSA (setting [2]), the hit result is recorded as “No”. In addition, in the series with intracellular MRSA (setting [3]), the “z-scoreMRSA+ mean” value is reported as -0.84, the “z-scoreMRSA+ rep 1” value was -1.28, the “z-scoreMRSA+ rep 2” value is -0.34 and the “z-scoreMRSA+ rep 3” value is recorded as -0.90. Moreover, in the series on HeLa cells (setting [4]), the “cell count rep 1” value amounted to 3913, the “cell count rep 2” value is listed as 3957 and the “cell count rep 3” value came out at 5747. For the same compound, the cell death result in the series with HeLa cells (Yes/No call from z-scoreHeLa) was “No”. Moreover, in the series with HeLa cells (setting [5]), the z-scoreHeLa mean is listed as -0.09, the “z-scoreHeLa rep 1” value was -0.32, the “z-scoreHeLa rep 2” value was -0.27 and the “z-scoreHeLa rep 3” value is 0.32.

In the case of `Cc1cc(N2Cc3ccccc3C2)nc(Nc2ccc(S(=O)(=O)N3CCOCC3)cc2)n1` [GSK1669917A], in the series with intracellular MRSA (setting [1]), the “%GFP+ rep 1” value is listed as 24.7%, the “%GFP+ rep 2” value is listed as 22.0% and the “%GFP+ rep 3” value was 22.0%. Besides, the effect entry with intracellular MRSA (Yes/No call from z-scoreMRSA+) was “No”. For the same compound, the hit result with intracellular MRSA (setting [2]) was “No”. In the series on intracellular MRSA (setting [3]), the “z-scoreMRSA+ mean” value was -0.11, the “z-scoreMRSA+ rep 1” value was -0.13, the “z-scoreMRSA+ rep 2” value is on record as -0.15 and the “z-scoreMRSA+ rep 3” value is -0.06. Moreover, in the series on HeLa cells (setting [4]), the “cell count rep 1” value is reported as 5559, the “cell count rep 2” value was determined as 4564 and the “cell count rep 3” value is given as 5979. The cell death entry in the series on HeLa cells (Yes/No call from z-scoreHeLa) is reported as “No”. In addition, in the series on HeLa cells (setting [5]), the z-scoreHeLa mean came out at 0.51, the “z-scoreHeLa rep 1” value was 0.87, the “z-scoreHeLa rep 2” value was 0.20 and the “z-scoreHeLa rep 3” value came out at 0.47.

Turning to `COc1ccc(CNC(=O)NC2CCN(c3ccnc(Nc4cc(OC)c(OC)c(OC)c4)n3)C2)cc1` (stereo not shown) [GSK1379748A], in the series on intracellular MRSA (setting [1]), the “%GFP+ rep 1” value is 25.5%, the “%GFP+ rep 2” value was found to be 23.4% and the “%GFP+ rep 3” value is 23.0%. In addition, the effect entry with intracellular MRSA (Yes/No call from z-scoreMRSA+) is reported as “No”. Besides, the hit result in the series on intracellular MRSA (setting [2]) is “No”. Further, in the series with intracellular MRSA (setting [3]), the “z-scoreMRSA+ mean” value is reported as 0.16, the “z-scoreMRSA+ rep 1” value is on record as 0.05, the “z-scoreMRSA+ rep 2” value was 0.19 and the “z-scoreMRSA+ rep 3” value came to 0.24. Besides, in the series with HeLa cells (setting [4]), the “cell count rep 1” value is listed as 5560, the “cell count rep 2” value is 4556 and the “cell count rep 3” value is given as 5664. Also, the cell death entry with HeLa cells (Yes/No call from z-scoreHeLa) is on record as “No”. In addition, in the series on HeLa cells (setting [5]), the z-scoreHeLa mean worked out at 0.45, the “z-scoreHeLa rep 1” value is 0.87, the “z-scoreHeLa rep 2” value was found to be 0.20 and the “z-scoreHeLa rep 3” value worked out at 0.27.

Values taken from PMC10999543, “Identification of kinase modulators as host-directed therapeutics against intracellular methicillin-resistant Staphylococcus aureus” (Frontiers in Cellular and Infection Microbiology, 2024).
